The experiment addresses human Factor XIIa (Homo sapiens (Human), UniProt P00748). As to the kind of experiment: Factor XIIa Assay. Format: biochemical. The note with it: purified human Factor XIIa 500 pM; substrate n-Acetyl-Lys-Pro-Arg-AFC 100 μM; pH 7.4; read-out: FXIIa IC50. The protocol: The effectiveness of a compound of the present invention as an inhibitor of Coagulation Factor XIIa can be determined using a relevant purified serine protease, and an appropriate synthetic substrate. The rate of hydrolysis of the chromogenic or fluorogenic substrate by the relevant serine protease was measured both in the absence and presence of compounds of the present invention. Assays were conducted at room temperature or at 37° C. […] A decrease in the rate of fluorescence change in the presence of inhibitor is indicative of enzyme inhibition. Such methods are known to one skilled in the art.
Factor XIIa activity determinations were made in 50 mM HEPES buffer containing 150 mM NaCl, 5 mM CaCl2, and 0.1% PEG 8000 (polyethylene glycol; JT Baker or Fisher Scientific) at pH 7.4. Determinations were made using purified human Factor XIIa at a final concentration of 500 pM (Sekisui Diagnostics) and the synthetic substrate, n-Acetyl-Lys-Pro-Arg-AFC, TFA salt (Sigma #C6608) at a concentration of 100 μM.
Times required to achieve equilibration between enzyme and inhibitor were determined in control experiments. Initial velocities of product formation in the absence (Vo) or presence of inhibitor (Vi) were measured. IC50 was determined as the concentration of I yielding Vi=Vo/2.

Each structure is given as a SMILES string.

human Factor XIIa, sequence (P00748 373-615): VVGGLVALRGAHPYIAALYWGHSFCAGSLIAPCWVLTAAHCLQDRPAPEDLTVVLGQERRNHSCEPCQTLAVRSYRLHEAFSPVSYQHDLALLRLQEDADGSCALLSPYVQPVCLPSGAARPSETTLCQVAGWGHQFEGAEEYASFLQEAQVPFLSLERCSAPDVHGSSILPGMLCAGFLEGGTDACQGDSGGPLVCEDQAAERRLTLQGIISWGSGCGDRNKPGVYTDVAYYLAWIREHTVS

For orientation: IC50 means the concentration needed to halve the response being measured. Turning to `COc1cc(CNC(=O)[C@@H]2CN(C(=O)Oc3ccc4ccccc4c3Cl)CCN2C(=O)[C@@H](CCCCNS(C)(=O)=O)NC2CCC3(CC2)CCN(Cc2ccccc2)C3)ccc1CN` (stereo partly drawn) [Example 74, 1-chloronaphthalen-2-yl (3S)-3-{[4-(aminomethyl)-3-methoxybenzyl]carbamoyl}-4-[N^2-(2-benzyl-2-azaspiro[4.5]dec-8-yl)-N^6-(methylsulfonyl)-D-lysyl]piperazine-1-carboxylate], the IC50 is 3.7 nM.
Turning to `COC(N)c1cccc(OC(=O)N2CCN(C(=O)[C@@H](CCCCNS(C)(=O)=O)NC3CCC4(CC3)CCN(Cc3ccccc3)C4)[C@H](C(=O)NCc3cccs3)C2)c1` (stereo partly drawn) [Example 75, 3-[amino(methoxy)methyl]phenyl (3S)-4-[N^2-(2-benzyl-2-azaspiro[4.5]dec-8-yl)-N^6-(methylsulfonyl)-D-lysyl]-3-[(thiophen-2-ylmethyl)carbamoyl]piperazine-1-carboxylate], the IC50 stood at 5.7 nM.
Turning to `COc1cc(CNC(=O)[C@@H]2CN(C(=O)Oc3cccc(CN)c3)CCN2C(=O)[C@@H](CCCCNS(C)(=O)=O)NC2CCC3(CC2)CCN(Cc2ccccc2)C3)ccc1CN` (stereo partly drawn) [Example 76, 3-(aminomethyl)phenyl (3S)-3-{[4-(aminomethyl)-3-methoxybenzyl]carbamoyl}-4-[N^2-(2-benzyl-2-azaspiro[4.5]dec-8-yl)-N^6= (methylsulfonyl)-D-lysyl]piperazine-1-carboxylate], the IC50 came to 4.1 nM.
For the compound `O=C(NCc1cccs1)[C@@H]1CN(C(=O)Oc2ccccc2Cl)CCN1C(=O)[C@@H](CCCCN1CCCS1(=O)=O)NC1CCCCC1` [Example 77, 2-chlorophenyl (3S)-4-[N-cyclohexyl-6-(1,1-dioxidoisothiazolidin-2-yl)-D-norleucyl]-3-[(thiophen-2-ylmethyl)carbamoyl]piperazine-1-carboxylate], the concentration for half-maximal inhibition (IC50) turned out to be 4.6 nM.
`CN(C)CCCC[C@@H](NC1CCC2(CC1)CCN(Cc1ccccc1)C2)C(=O)N1CCN(C(=O)Oc2ccccc2Cl)C[C@H]1C(=O)NCc1cccs1` (stereo partly drawn) [Example 78, 2-chlorophenyl (3S)-4-[N^2-(2-benzyl-2-azaspiro[4.5]dec-8-yl)-N^6,N^6-dimethyl-D-lysyl]-3-[(thiophen-2-ylmethyl)carbamoyl]piperazine-1-carboxylate]: the IC50 came out at 0.9 nM.
Turning to `CS(=O)(=O)NCCCC[C@@H](NC1CCC2(CC1)CCN(Cc1ccccc1)C2)C(=O)N1CCN(C(=O)Oc2cccc3c2CCNC3)C[C@H]1C(=O)NCc1cccs1` (stereo partly drawn) [Example 81, 1,2,3,4-tetrahydroisoquinolin-5-yl (3S)-4-[N^2-(2-benzyl-2-azaspiro[4.5]dec-8-yl)-N^6-(methylsulfonyl)-D-lysyl]-3-[(thiophen-2-ylmethyl)carbamoyl]piperazine-1-carboxylate], the IC50 amounted to 3.4 nM.
For `CS(=O)(=O)NCCCC[C@@H](NC1CCC2(CC1)CCN(Cc1ccccc1)C2)C(=O)N1CCN(C(=O)Oc2cccc(CN)c2Cl)C[C@H]1C(=O)NCc1cccs1` (stereo partly drawn) [Example 82, 3-(aminomethyl)-2-chlorophenyl (3S)-4-[N^2-(2-benzyl-2-azaspiro[4.5]dec-8-yl)-N^6-(methylsulfonyl)-D-lysyl]-3-[(thiophen-2-ylmethyl)carbamoyl]piperazine-1-carboxylate], the IC50 amounted to 2.1 nM.
The value for `COc1cc(CNC(=O)[C@@H]2CN(C(=O)Oc3ccccc3Cl)CCN2C(=O)[C@@H](CCCCNS(C)(=O)=O)NC2CCC3(CC2)CCN(Cc2ccccc2)C3)ccc1CN` (stereo partly drawn) [Example 85, 2-chlorophenyl (3S)-3-{[4-(aminomethyl)-3-methoxybenzyl]carbamoyl}-4-[N^2-(2-benzyl-2-azaspiro[4.5]dec-8-yl)-N^6-(methylsulfonyl)-D-lysyl]piperazine-1-carboxylate] was 8.3 nM; that for `COc1cc(CNC(=O)[C@@H]2CN(C(=O)Oc3ccc4ccccc4c3Cl)CCN2C(=O)[C@@H](CCCCN(C)C)N(C)C2CCC3(CC2)CCN(Cc2ccccc2)C3)ccc1CN` (stereo partly drawn) [Example 87, 1-chloronaphthalen-2-yl (3S)-3-{[4-(aminomethyl)-3-methoxybenzyl]carbamoyl}-4-[N^2-(2-benzyl-2-azaspiro[4.5]dec-8-yl)-N^2,N^6,N^6-trimethyl-D-lysyl]piperazine-1-carboxylate] was 1 nM; that for `O=C(NCc1cccs1)[C@@H]1CN(C(=O)Oc2ccccc2Cl)CCN1C(=O)[C@@H](CCCCN1CCCCC1)NC1CCC2(CC1)CCN(Cc1ccccc1)C2` (stereo partly drawn) [Example 88, 2-chlorophenyl (3S)-4-[N-(2-benzyl-2-azaspiro[4.5]dec-8-yl)-6-piperidin-1-yl-D-norleucyl]-3-[(thiophen-2-ylmethyl)carbamoyl]piperazine-1-carboxylate] was 0.9 nM.
The value for `COc1cc(CNC(=O)[C@@H]2CN(C(=O)Oc3ccc4ccccc4c3Cl)CCN2C(=O)[C@H](N)CCCCN(C)C)ccc1CN` [Example 89, 1-chloronaphthalen-2-yl (3S)-3-{[4-(aminomethyl)-3-methoxybenzyl]carbamoyl}-4-(N^6,N^6-dimethyl-D-lysyl)piperazine-1-carboxylate] was 1.7 nM; that for `CN(C)CCCC[C@@H](NC1CCC2(CC1)CCN(Cc1ccccc1)C2)C(=O)N1CCN(C(=O)Oc2ccccc2Cl)C[C@H]1C(=O)NCc1cccs1` (stereo partly drawn) [Example 90, 2-chlorophenyl (3S)-4-[N^2-(2-benzyl-2-azaspiro[4.5]dec-8-yl)-N^6,N^6-dimethyl-D-lysyl]-3-[(thiophen-2-ylmethyl)carbamoyl]piperazine-1-carboxylate] was 0.7 nM; that for `COc1cc(CNC(=O)[C@@H]2CN(C(=O)Oc3ccc4ccccc4c3Cl)CCN2C(=O)[C@@H](CCCCN(C)C)NC2CCC(CN)CC2)ccc1CN` (stereo partly drawn) [Example 92, 1-chloronaphthalen-2-yl (3S)-4-{N^2-[4-(aminomethyl)cyclohexyl]-N^6,N^6-dimethyl-D-lysyl}-3-{[4-(aminomethyl)-3-methoxybenzyl]carbamoyl}piperazine-1-carboxylate] was 2.9 nM.
With `CN(C)CCCC[C@@H](NC1CCC2(CC1)CCN(Cc1ccccc1)C2)C(=O)N1CCN(C(=O)CC2CCCC2)C[C@H]1C(=O)NCc1cccs1` (stereo partly drawn) [Example 93, (2S)-1-[N^2-(2-benzyl-2-azaspiro[4.5]dec-8-yl)-N^6,N^6-dimethyl-D-lysyl]-4-(cyclopentylacetyl)-N-(thiophen-2-ylmethyl)piperazine-2-carboxamide], the half-inhibitory concentration (IC50) came to 23.5 nM.
Take `Cc1ccc(OC(=O)N2CCN(C(=O)[C@@H](CC3CCCCC3)NC3CCCCC3)[C@H](C(=O)NCc3cccs3)C2)c(Cl)c1C` [Example 94, 2-chloro-3,4-dimethylphenyl (3S)-4-(N,3-dicyclohexyl-D-alanyl)-3-[(thiophen-2-ylmethyl)carbamoyl]piperazine-1-carboxylate]: the half-maximal inhibitory concentration (IC50) worked out at 7.5 nM.
For the compound `O=C(NCc1cccs1)[C@@H]1CN(C(=O)Oc2ccccc2Cl)CCN1C(=O)[C@@H](CCCCN1CCOCC1)NC1CCC2(CC1)CCN(Cc1ccccc1)C2` (stereo partly drawn) [Example 95, 2-chlorophenyl (3S)-4-[N-(2-benzyl-2-azaspiro[4.5]dec-8-yl)-6-morpholin-4-yl-D-norleucyl]-3-[(thiophen-2-ylmethyl)carbamoyl]piperazine-1-carboxylate], the IC50 is 1.8 nM.
With `CN(C)CCCC[C@H](C(=O)N1CCN(C(=O)Cc2cccc3c2CCNC3)C[C@H]1C(=O)NCc1cccs1)N(C)C1CCC2(CC1)CCN(Cc1ccccc1)C2` (stereo partly drawn) [Example 96, (2S)-1-[N^2-(2-benzyl-2-azaspiro[4.5]dec-8-yl)-N^2,N^6,N^6-trimethyl-D-lysyl]-4-(1,2,3,4-tetrahydroisoquinolin-5-ylacetyl)-N-(thiophen-2-ylmethyl)piperazine-2-carboxamide], the IC50 was found to be 11.9 nM.
Consider `O=C(NCc1cccs1)[C@@H]1CN(C(=O)Oc2ccccc2Cl)CCN1C(=O)[C@@H](CCCCN1CCCCC1)NC1CCCCC1` [Example 97, 2-chlorophenyl (3S)-4-(N-cyclohexyl-6-piperidin-1-yl-D-norleucyl)-3-[(thiophen-2-ylmethyl)carbamoyl]piperazine-1-carboxylate], for which the IC50 stood at 0.7 nM.
For `Cc1ccc(OC(=O)N2CCN(C(=O)[C@H](N)CCCCN(C)C)[C@H](C(=O)NCc3cccs3)C2)c(Cl)c1C` [Example 98, 2-chloro-3,4-dimethylphenyl (3S)-4-(N^6,N^6-dimethyl-D-lysyl)-3-[(thiophen-2-ylmethyl)carbamoyl]piperazine-1-carboxylate], the IC50 worked out at 7.2 nM.
As to `CN(C)CCCC[C@@H](NC1CCCCC1)C(=O)N1CCN(C(=O)CC2CCCC2)C[C@H]1C(=O)NCc1cccs1` [Example 99, (2S)-1-(N^2-cyclohexyl-N^6,N^6-dimethyl-D-lysyl)-4-(cyclopentylacetyl)-N-(thiophen-2-ylmethyl)piperazine-2-carboxamide], the half-maximal inhibitory concentration (IC50) is 29.7 nM.
With `Cc1ccc(OC(=O)N2CCN(C(=O)[C@@H](CCCCN(C)C)N(C)C3CCC4(CC3)CCN(Cc3ccccc3)C4)[C@H](C(=O)NCc3cccs3)C2)c(Cl)c1C` (stereo partly drawn) [Example 100, 2-chloro-3,4-dimethylphenyl (3S)-4-[N^2-(2-benzyl-2-azaspiro[4.5]dec-8-yl)-N^2,N^6,N^6-trimethyl-D-lysyl]-3-[(thiophen-2-ylmethyl)carbamoyl]piperazine-1-carboxylate], the half-maximal inhibitory concentration (IC50) is 0.5 nM.
